This is an account of results in patent US20100280358A1, “SINGLE BREATH-HOLD SYSTEM AND METHOD FOR DETECTION AND ASSESSMENT OF MULTI-ORGAN PHYSIOLOGIC, MORPHOLOGIC AND STRUCTURAL CHANGES” (University of Virginia Patent Foundation, priority 2009, published 2010).

Experiment [1] has as its system rabbit model of stereotactic lung radiosurgery. Kind of experiment: SB-CSI with hp Xe-129 in a rabbit model of stereotactic lung radiosurgery with and without a radioprotector. Format: in vivo, New Zealand rabbits. As to conditions: for mean difference between the lungs (SB-CSI maps, mean±SD): right lower lobe 3 x 11 Gy, 50 mg/Kg I.V. 20 minutes before each radiation dose, baseline 3.2%±3.5%. The source says:
In order to study the efficacy of this technique for detecting changes in lung physiology and morphology, it was applied to a rabbit model of stereotactic lung radiosurgery with and without a radioprotector. The lower lobes of the right lung of nine New Zealand rabbits were irradiated with 3 doses of 11 Gy each (FIGS. 2A, 2B) using a TomoTherapy Hi-Art scanner. The healthy left lung was spared from radiation, so it could be used as a control and also would improve the animal's quality of life. Six of these nine animals received 50 mg/Kg of the radioprotector Amifostine, through an I.V., 20 minutes before each radiation dose. SB-CSI was performed using a 1.5-Tesla clinical MR scanner at baseline, and at 4 and 8 weeks post-radiation treatment. For correlation with the SB-CSI results, each animal was also scanned at the same time points (in the same MR scanner) using a 3D contrast-enhanced MRA sequence (ce-MRA), with 3 cc of a gadolinium chelate (FIGS. 2E, 2F). Within a week of the Xe-129 scan, a hyperpolarized Helium-3 (hp He-3) ventilation scan (FIGS. 2G, 2H) was obtained using the same inhalation and breath-hold technique as those for Xe-129, and a computed tomography (CT) scan was also obtained with a resolution of 0.5×0.5×1.5 mm^3 (FIGS. 2C, 2D).
SB-CSI maps based on the integrals of each individual peak were calculated separately for each animal and for each time point. At baseline the mean differences between the lungs were statistically identical for both groups, with 1.3%±1.0% (mean±SD) for the control group (radiosurgery only) and 3.2%±3.5% for the group that received radiosurgery and the radioprotector. At 4 weeks post radiosurgery, the mean differences between the lungs were 6.2%±2.3% and 4.6%±3.2% for the control and radioprotector groups, respectively. At 8 weeks post, the mean difference between the lungs increased to 16.7%±3.2% for the control group, while for the animals that received the radioprotector the value remained identical to baseline, at 3.4%±2.6%. […]

The test system of experiment [2] is rabbit model of lung fibrosis. Kind of experiment: hyperpolarized Xe-129 2D/3D-CSI in a rabbit model of lung fibrosis (endotracheal bleomycin). Format: in vivo, New Zealand White rabbits. The following applies: after endotracheal instillation, scans at 2, 4 and 7 weeks. The source says: Three New Zealand White rabbits underwent hyperpolarized Xe-129 2D or 3D-CSI one four different days: one before and 2, 4 and 7 weeks after the endotracheal instillation of bleomycin which induces lung fibrosis, or after the endotracheal instillation of porcine elastase which initially induces lung inflammation but later induces emphysema, and one control animal with no intervention. All scans were done in a 1.5 Tesla clinical system (Avanto, Siemens Medical Solutions) using a transmitter/receiver birdcage RF coil (IGC Medical Advances, Milwaukee, Wis.) tuned to the Xe-129 frequency. Isotopically enriched (˜87%) Xe-129 was polarized to ˜35% using a commercial prototype polarizer (Xemed LLC, NH). For each 2D or 3D acquisition, a single 40-cc volume was administered to the animal, and respiration was suspended for the acquisition (˜6-18s). […]
Quantification of the maps for the animal in the fibrosis model group show an increase in the tissue/gas and RBC/gas ratios following the instillation of bleomycin, but only the tissue/gas remained elevated, as expected in fibrosis (FIG. 5).
This Xe-129 dissolved-phase peak is not well resolved in normal rabbits and it was not seen in our control animal. […] Subsequently, each separate peak in the spectrum was quantified using a Principal Component Analysis (PCA) method (33)

In the case of `NCCCNCCSP(=O)(O)O` [radioprotector, Amifostine], the “early treatment toxicity (radiation-induced pulmonary injury) detected by SB-CSI” value in experiment [1] (4 and 8 weeks post treatment, versus radiation only) is “reduced early treatment toxicity”. Moreover, the “mean difference between the lungs (SB-CSI maps, mean±SD)” value in experiment [1] (4 weeks post radiosurgery, control group 6.2%±2.3%) was 4.6%±3.2%; in experiment [1] (8 weeks post radiosurgery, control group 16.7%±3.2%), 3.4%±2.6%.

Regarding bleomycin, the “RBC/gas ratio (Xe-129 CSI maps)” value in experiment [2] (did not remain elevated (FIG. 5)) is on record as “increase”. In addition, the “tissue/gas ratio (Xe-129 CSI maps)” value in experiment [2] (remained elevated (FIG. 5)) is listed as “increase”.
